From patent publication US7432278B2, “Dicationic imidazo[1,2-a]pyridines and 5,6,7,8-tetrahydro-imidazo[1,2-a]pyridines as antiprotozoal agents” (The University of North Carolina at Chapel Hill, priority 2004, dated 2008)
Counter-ions that a name gives are not always drawn. Like-named read-outs stand apart in the source and are kept apart here.

Key:
[1] = test system: Plasmodium falciparum; experiment: In vitro anti-protozoan activity against P. f.; type: cell-based; conditions: concentration that gives 50% growth inhibition, average of duplicate determinations, K = 1,000
Procedure: (§1) The DNA binding studies and both the in vitro and in vivo antiprotozoan studies were performed as described by Ismail. M. A., et al., J. Med. Chem., 46, 4761-4769 (2003), which is incorporated herein by reference in its entirety.

[2] = test system: T. b. r. (STIB900 acute infection); experiment: In vivo anti-trypanosomal activity in the STIB900 mouse model; conditions: for Survival: average days of survival; for in vivo effectiveness on oral dosage (in words): STIB900 model
Procedure: as §1
In this model five of the diamidines (8a, 8b, 7, 14b, 14a) give 4/4 cures and two, 13a and 14c, give 3/4 cures on intraperitoneal dosage. […] No attempts were made to optimize the formulation. […] One of ordinary skill in the art would appreciate that optimization of the formulation could improve the oral bioavailability of the prodrug.

[3] = test system: Trypanosoma brucei rhodesiense; experiment: In vitro anti-protozoan activity against T. b. r.; type: cell-based; conditions: for IC50: read-out: T.b.r. IC50; for in vitro activity (in words): against T. b. r. and P. f. (Table 1)
Procedure: The DNA binding studies and both the in vitro and in vivo antiprotozoan studies were performed as described by Ismail. M. A., et al., J. Med. Chem., 46, 4761-4769 (2003), which is incorporated herein by reference in its entirety. […]

[4] = test system: Poly-(dA.dT)2; experiment: DNA binding studies (ΔTm); conditions: DNA affinity
Procedure: as §1
Table 1 contains the results from the DNA binding studies for the new diamidines and the in vitro results for the compounds tested against T. b. r. and P. f. […] As a representative example of this class of compounds, compound 12 was evaluated and gave a ΔTm value of only 0.3.

[5] = Mus musculus, 1440 h, ip, 20 mg/kg, number of mice that survive and are parasite free for 60 days, read-out: Cures (converted)
[6] = Trypanosoma brucei, RHODESIENSE, concentration that gives 50% growth inhibition, average of duplicate determinations, K = 1,000
[7] = Mus musculus, 1440 h, po, 75 mg/kg, number of mice that survive and are parasite free for 60 days, read-out: Cures
[8] = Mus musculus, 1440 h, po, 100 mg/kg, number of mice that survive and are parasite free for 60 days, read-out: Cures (converted)
[9] = concentration that gives 50% growth inhibition, average of duplicate determinations, K = 1,000

For `N=C(N)c1ccc(-c2ccc(-c3cn4cc(C(=N)N)ccc4n3)cc2)cc1` [Compound 14a, 2-(4′-Amidinobiphenyl-4-yl)-imidazo[1,2-a]pyridine-6-carboxamidine], which IC50 ([1]; Plasmodium falciparum) is on record?
The IC50 was 43 nM.

And the responders at 20 mg/kg [2, 5]?
Its responders at 20 mg/kg is 100%.

And the “Survival” value ([2]; ip, 20 mg/kg)?
The value was over 60 days.

What about the IC50 [3, 6] of the same compound?
The IC50 was 1 nM.

What about the ΔTm Poly-(dA.dT)2 [4] of the same compound?
Its ΔTm Poly-(dA.dT)2 is 24.2 °C.

Which IC50 ([1]; Plasmodium falciparum) does the source give for `CONC(=N)c1ccc(-c2ccc(-c3cn4cc(C(=N)NOC)ccc4n3)cc2)cc1` [Compound 12, N-Methoxy-2-[4′-(N-methoxyamidino)-biphenyl-4-yl]-imidazo[1,2-a]pyridine-6-carboxamidine] here?
Its IC50 is 395 nM.

What about the responders at 75 mg/kg [2, 7] of the same compound?
The responders at 75 mg/kg was 0%.

And the “in vivo effectiveness on oral dosage (in words)” value (shortened to “in vivo effectiveness”) [2]?
The value was “did not show high in vivo effectiveness”.

And the “Survival” value ([2]; po, 75 mg/kg)?
The value was 20 days.

And the IC50 [3, 6]?
Its IC50 is 5300 nM.

What about the “in vitro activity (in words)” value [3] of the same compound?
The value was “essentially no in vitro activity”.

What about the ΔTm Poly-(dA.dT)2 [4] of the same compound?
The ΔTm Poly-(dA.dT)2 was 0.3 °C.

Which results are given for `Cc1cc(C(=N)N)cn2cc(-c3cccc(-c4ccc(C(=N)N)cc4)c3)nc12` [Compound 14c, 2-(4′-Amidinobiphenyl-3-yl)-8-methyl-imidazo[1,2-a]pyridine-6-carboxamidine]?
IC50 ([1]; Plasmodium falciparum): 86 nM; responders at 20 mg/kg [2, 5]: 75%; Survival ([2]; ip, 20 mg/kg): >50 days; IC50 [3, 6]: 49 nM; ΔTm Poly-(dA.dT)2 [4]: > 27 °C

With `N=C(N)c1ccc(-c2ccc(-c3cn4c(n3)CCC(C(=N)N)C4)cc2)cc1` (centres unmarked) [Compound 13a, 2-(4′-Amidinobiphenyl-4-yl)-5,6,7,8-tetrahydro-imidazo[1,2-a]pyridine-6-carboxamidine] as the compound, how does the IC50 ([1]; Plasmodium falciparum) read?
Its IC50 is 14 nM.

And the responders at 10 mg/kg ([2]; Mus musculus, 1440 h, ip, 10 mg/kg, number of mice that survive and are parasite free for 60 days, read-out: Cures (converted))?
The responders at 10 mg/kg was 75%.

What about the “Survival” value ([2]; ip, 10 mg/kg) of the same compound?
The value was over 51.5 days.

What about the IC50 [3, 6] of the same compound?
Its IC50 is 116 nM.

What about the ΔTm Poly-(dA.dT)2 [4] of the same compound?
Its ΔTm Poly-(dA.dT)2 is 21.3 °C.

For `N=C(NO)c1ccc(-c2ccc(-c3cn4cc(C(=N)NO)ccc4n3)cc2)cc1` [Compound 11a, N-Hydroxy-2-[4′-(N-hydroxyamidino)-biphenyl-4-yl]-imidazo[1,2-a]pyridine-6-carboxamidine], which IC50 ([1]; Plasmodium falciparum) is on record?
The IC50 was 521 nM.

What about the responders at 75 mg/kg [2, 7] of the same compound?
Its responders at 75 mg/kg is 0%.

What about the “in vivo effectiveness” value [2] of the same compound?
The value was “did not show high in vivo effectiveness”.

What about the “Survival” value ([2]; po, 75 mg/kg) of the same compound?
The value was 28 days.

And the IC50 [3, 6]?
The IC50 was over 166000 nM.

What about the “in vitro activity (in words)” value [3] of the same compound?
The value was “essentially no in vitro activity”.

Which results are given for `Cc1cc(C(=N)N)cn2cc(-c3ccc(-c4ccc(C(=N)N)cc4)o3)nc12` [Compound 8b, 2-[5-(4-Amidinophenyl)-furan-2-yl]-8-methyl-imidazo[1,2-a]pyridine-6-carboxamidine]?
IC50 ([1]; Plasmodium falciparum): 88 nM; responders at 20 mg/kg [2, 5]: 100%; Survival ([2]; ip, 20 mg/kg): >60 days; IC50 [3, 6]: 6 nM; ΔTm Poly-(dA.dT)2 [4]: > 27 °C

What does the source list for `CONC(=N)c1ccc(-c2ccc(-c3ccc(C(=N)NOC)cc3)o2)cc1` [Compound IIIa, 2,5-Bis[4-(methoxyamidino)phenyl]furan, reference compound]?
IC50 ([1]; Plasmodium falciparum): 15.5 nM; responders at 100 mg/kg [2, 8]: 100%; Survival ([2]; po, 100 mg/kg): >60 days; IC50 [3, 6]: 4.5 nM; ΔTm Poly-(dA.dT)2 [4]: 25 °C

For `N=C(N)c1ccc(-c2cccc(-c3cn4c(n3)CCC(C(=N)N)C4)c2)cc1` (centres unmarked) [Compound 13b, 2-(4′-Amidinobiphenyl-3-yl)-5,6,7,8-tetrahydro-imidazo[1,2-a]pyridine-6-carboxamidine], which IC50 ([1]; Plasmodium falciparum) is on record?
Its IC50 is 86 nM.

What about the IC50 [3, 6] of the same compound?
Its IC50 is 226 nM.

And the ΔTm Poly-(dA.dT)2 [4]?
The ΔTm Poly-(dA.dT)2 was 19.1 °C.

With `N=C(N)c1ccc(OCCCCCOc2ccc(C(=N)N)cc2)cc1` [Pentamidine(I), Pentamidine, reference compound] as the compound, how does the responders at 20 mg/kg [2, 5] read?
The responders at 20 mg/kg was 0%.

And the “Survival” value ([2]; ip, 20 mg/kg)?
The value was 40.8 days.

And the ΔTm Poly-(dA.dT)2 [4]?
Its ΔTm Poly-(dA.dT)2 is 12 °C.

What does the source list for `N=C(N)c1ccc(-c2ccc(-c3ccc(C(=N)N)cc3)o2)cc1` [Furamidine(IIa), 2,5-Bis(4-amidinophenyl)furan, reference compound]?
responders at 20 mg/kg ([2]; Mus musculus, ip, 1440 h, read-out: Cures): 0%; Survival ([2]; ip, 20 mg/kg): 52.5 days; IC50 ([3]; Trypanosoma brucei, RHODESIENSE): 14600 nM

For `N=C(N)c1ccc(-c2ccc3nc(-c4ccc(C(=N)N)cc4)cn3c2)cc1` [Compound 19], which IC50 [1] is on record?
Its IC50 is 92 nM.

And the IC50 [3, 9]?
Its IC50 is 7 nM.

Which melting point does the source give for `Cc1cc(C(=N)NO)cn2cc(-c3cccc(-c4ccc(C(=N)NO)cc4)c3)nc12` [Compound 11c, N-Hydroxy-2-[4′-(N-hydroxyamidino)-biphenyl-3-yl]-8-methyl-imidazo[1,2-a]pyridine-6-carboxamidine] here?
The melting point was 193 to 195 °C.

For `N=C(N)c1ccc(-c2cccc(-c3cn4cc(C(=N)N)ccc4n3)c2)cc1` [Compound 14b, 2-(4′-Amidinobiphenyl-3-yl)-imidazo[1,2-a]pyridine-6-carboxamidine], which IC50 ([1]; Plasmodium falciparum) is on record?
The IC50 was 107 nM.

What about the responders at 20 mg/kg [2, 5] of the same compound?
Its responders at 20 mg/kg is 100%.

What about the “Survival” value ([2]; ip, 20 mg/kg) of the same compound?
The value was over 60 days.

What about the IC50 [3, 6] of the same compound?
The IC50 was 22 nM.

And the ΔTm Poly-(dA.dT)2 [4]?
The ΔTm Poly-(dA.dT)2 was over 27 °C.

For `N=C(NO)c1ccc(-c2ccc(-c3cn4cc(C(=N)NO)ccc4n3)o2)cc1` [Compound 5a, N-Hydroxy-2-{5-[4-(N-hydroxyamidino)-phenyl]-furan-2-yl}-imidazo[1,2-a]pyridine-6-carboxamidine], which IC50 ([1]; Plasmodium falciparum) is on record?
The IC50 was 1600 nM.

What about the responders at 50 mg/kg ([2]; Mus musculus, 1440 h, po, 50 mg/kg, number of mice that survive and are parasite free for 60 days, read-out: Cures (converted)) of the same compound?
Its responders at 50 mg/kg is 25%.

And the “in vivo effectiveness” value [2]?
The value was “did not show high in vivo effectiveness”.

And the “Survival” value ([2]; po, 50 mg/kg)?
The value was over 19.5 days.

And the IC50 [3, 6]?
The IC50 was 2200 nM.

What about the “in vitro activity (in words)” value [3] of the same compound?
Its value is “essentially no in vitro activity”.

For `N=C(N)c1ccc(-c2cccc(-c3cn4c(n3)CCC(C(=N)N)C4)c2)cc1` (centres unmarked) (as salt: salt) [Compound 13b, 2-(4′-Amidinobiphenyl-3-yl)-5,6,7,8-tetrahydro-imidazo[1,2-a]pyridine-6-carboxamidine], which melting point is on record?
Its melting point is 236 to 238 °C.

Which results are given for `CONC(=N)c1ccc(-c2ccc(-c3cn4cc(C(=N)NOC)ccc4n3)o2)cc1` [Compound 6, N-Methoxy-2-{5-[4-(N-methoxyamidino)-phenyl]-furan-2-yl}-imidazo[1,2-a]pyridine-6-carboxamidine]?
IC50 ([1]; Plasmodium falciparum): 2800 nM; responders at 100 mg/kg [2, 8]: 50%; in vivo effectiveness on oral dosage (in words) [2]: did not show high in vivo effectiveness; Survival ([2]; po, 100 mg/kg): >39.5 days; IC50 [3, 6]: 3000 nM; in vitro activity (in words) [3]: essentially no in vitro activity

What does the source list for `N=C(N)c1ccc(-c2ccc(-c3cn4cc(C(=N)N)ccc4n3)o2)cc1` [Compound 8a, 2-[5-(4-Amidinophenyl)-furan-2-yl]-imidazo[1,2-a]pyridine-6-carboxamidine]?
IC50 ([1]; Plasmodium falciparum): 14 nM; responders at 20 mg/kg [2, 5]: 100%; Survival ([2]; ip, 20 mg/kg): >60 days; IC50 [3, 6]: 63 nM; ΔTm Poly-(dA.dT)2 [4]: 26.2 °C

For `N=C(NO)c1ccc(-c2cccc(-c3cn4cc(C(=N)NO)ccc4n3)c2)cc1` [Compound 11b, N-Hydroxy-2-[4′-(N-hydroxyamidino)-biphenyl-3-yl]-imidazo[1,2-a]pyridine-6-carboxamidine], which melting point is on record?
Its melting point is 252 to 254 °C.

Which results are given for `N=C(N)c1ccc(-c2cn3c(n2)CCC(c2ccc(C(=N)N)cc2)C3)cc1` (centres unmarked) [Compound 18]?
IC50 [1]: 85 nM; IC50 [3, 9]: 14 nM

What does the source list for `N=C(N)c1ccc(-c2ccc(-c3cn4c(n3)CCC(C(=N)N)C4)o2)cc1` (centres unmarked) [Compound 7, 2-[5-(4-Amidinophenyl)-furan-2-yl]-5,6,7,8-tetrahydro-imidazo[1,2-a]pyridine-6-carboxamidine]?
IC50 ([1]; Plasmodium falciparum): 1200 nM; responders at 5 mg/kg ([2]; Mus musculus, 1440 h, ip, 5 mg/kg, number of mice that survive and are parasite free for 60 days, read-out: Cures (converted)): 50%; responders at 20 mg/kg [2, 5]: 100%; Survival ([2]; ip, 5 mg/kg): >51 days; Survival ([2]; ip, 20 mg/kg): >60 days; IC50 [3, 6]: 52 nM; ΔTm Poly-(dA.dT)2 [4]: 15.6 °C
